From patent US11033539B2, “Compounds of formulas (VII), (VIII), (IX), (XI), (XII), (XIII), and (XIV) as muscarinic receptor 4(M4) antagonists for treating neurological diseases” (Neurocrine Biosciences, Inc., priority 2015, dated 2021)

Biological target: human M4 receptor (Homo sapiens (Human), UniProt P08173)
Assay: Radioligand (tritiated N-methylscopolamine) binding assay, M4
Settings: Ki against the M4 receptor; membranes from CHO cells expressing human M4; tritiated N-methylscopolamine 1.5 nM; read-out: Ki
In short: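 Ki values come from displacement of 1.5 nM radioligand from membranes of receptor-expressing CHO cells, with filter-trapped radioactivity counted after rapid vacuum filtration. Twelve compound concentrations (10 μM to […]) were incubated for 90 min at 37 °C at pH 7.4.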

Chain of human M4 receptor (P08173 whole entry): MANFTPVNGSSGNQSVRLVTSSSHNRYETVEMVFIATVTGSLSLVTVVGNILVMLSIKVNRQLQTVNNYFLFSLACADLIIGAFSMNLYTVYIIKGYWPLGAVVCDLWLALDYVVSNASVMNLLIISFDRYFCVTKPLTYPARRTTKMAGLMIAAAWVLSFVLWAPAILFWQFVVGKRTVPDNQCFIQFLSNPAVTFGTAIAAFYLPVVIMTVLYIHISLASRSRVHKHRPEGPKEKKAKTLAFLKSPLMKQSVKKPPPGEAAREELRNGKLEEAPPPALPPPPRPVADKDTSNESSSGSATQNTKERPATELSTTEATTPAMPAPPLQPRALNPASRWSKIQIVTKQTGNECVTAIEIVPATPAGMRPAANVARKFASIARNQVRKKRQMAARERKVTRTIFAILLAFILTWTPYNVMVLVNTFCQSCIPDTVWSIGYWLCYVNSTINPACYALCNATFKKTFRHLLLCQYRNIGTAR

Row | Compound | Ki [nM]
1 | O=C(NCCC1CCN(Cc2ccccc2)CC1)C1CCN(c2ccc(F)cc2)CC1 [10-35, N-[2-(1-benzylpiperidin-4-yl)ethyl]-1-(4-fluorophenyl)piperidine-4-carboxamide] | 10 to 100
2 | O=C(NCCC1CCN(Cc2cccc(O)c2)CC1)c1ccc(Oc2ccccc2)cc1 [11-13, N-(2-{1-[(3-hydroxyphenyl)methyl]piperidin-4-yl}ethyl)-4-phenoxybenzamide] | 100 to 1000
3 | O=C(NCCC1CCN(Cc2ccccc2)CC1)[C@H]1CCN(c2ccc(OC(F)(F)F)cc2)C1 [10-71, (3S)-N-[2-(1-benzylpiperidin-4-yl)ethyl]-1-[4-(trifluoromethoxy)phenyl]pyrrolidine-3-carboxamide] | 100 to 1000
4 | N#Cc1ccc(N2CCC(C(=O)NCCC3CCN(Cc4ccccc4O)CC3)CC2)nc1 [11-25, 1-(5-cyanopyridin-2-yl)-N-(2-{1-[(2-hydroxyphenyl)methyl]piperidin-4-yl}ethyl)piperidine-4-carboxamide] | 100 to 1000
5 | N#Cc1ccc(N2CCC(C(=O)NCCC3CCN(Cc4ccccc4)CC3)CC2)cc1 [9-29, N-[2-(1-benzylpiperidin-4-yl)ethyl]-1-(4-cyanophenyl)piperidine-4-carboxamide] | 10 to 100
6 | CC(C)NC(=O)c1cnc(N2CCN(C(=O)NCCC3CCN(Cc4ccccc4)CC3)[C@H](C)C2)nc1 [27-15] | 100 to 1000
7 | COC1(C(=O)NCCC2CCN(Cc3ccccc3)CC2)CCN(c2ccccc2OC(F)(F)F)CC1 [10-75, N-[2-(1-benzylpiperidin-4-yl)ethyl]-4-methoxy-1-[2-(trifluoromethoxy)phenyl]piperidine-4-carboxamide] | 100 to 1000
8 | COc1ccccc1C1(O)CCN(C(=O)NCCC2CCN(Cc3ccccc3)CC2)CC1 [8-42, N-[2-(1-benzylpiperidin-4-yl)ethyl]-4-hydroxy-4-(2-methoxyphenyl)piperidine-1-carboxamide] | 100 to 1000
9 | N#Cc1cccc(N2CCC(NC(=O)NCCC3CCN(Cc4ccccc4)CC3)CC2)c1 [8-40, 3-[2-(1-benzylpiperidin-4-yl)ethyl]-1-[1-(3-cyanophenyl)piperidin-4-yl]urea] | 100 to 1000
10 | C[C@@H]1CN(c2ncc(C#N)cn2)C[C@H](C)N1C(=O)NCCC1CCN(Cc2cccnc2F)CC1 [6-64, (2R,6S)-4-(5-cyanopyrimidin-2-yl)-N-(2-{1-[(2-fluoropyridin-3-yl)methyl]piperidin-4-yl}ethyl)-2,6-dimethylpiperazine-1-carboxamide] | 100 to 1000
11 | O=C(NCCC1CCN(Cc2ccccc2)CC1)C1CCN(c2cccc3c2OC(F)(F)O3)CC1 [10-45, N-[2-(1-benzylpiperidin-4-yl)ethyl]-1-(2,2-difluoro-2H-1,3-benzodioxol-4-yl)piperidine-4-carboxamide] | 10 to 100
12 | COc1cc(C#N)cc(N2CCN(C(=O)NCCC3CCN(Cc4ccccc4)CC3)[C@H](C)C2)c1 [4-39, (2R)-N-[2-(1-benzylpiperidin-4-yl)ethyl]-4-(3-cyano-5-methoxyphenyl)-2-methylpiperazine-1-carboxamide] | 10 to 100
13 | O=C(NCCC1CCN(Cc2ccccc2)CC1)N1CCC(O)(c2cccc(C(F)(F)F)c2)CC1 [8-19, N-[2-(1-benzylpiperidin-4-yl)ethyl]-4-hydroxy-4-[3-(trifluoromethyl)phenyl]piperidine-1-carboxamide] | 10 to 100
14 | N#Cc1cc(F)cc(N2CCN(C(=O)NCCC3CCN(Cc4ccccc4)CC3)CC2)c1 [8-18, N-[2-(1-benzylpiperidin-4-yl)ethyl]-4-(3-cyano-5-fluorophenyl)piperazine-1-carboxamide] | 10 to 100
15 | C[C@@H]1CN(c2ncc(C#N)cn2)C[C@H](C)N1C(=O)NCCC1CCN(CC2CCC2)CC1 [21-5] | 100 to 1000
16 | C[C@@H]1CN(c2ncc(C#N)cn2)C[C@H](C)N1C(=O)NCCC1CCN(Cc2ccccn2)CC1 [21-3] | 100 to 1000
17 | C[C@@H]1CN(c2ncc(C#N)c(N(C)C)n2)CCN1C(=O)NCCC1CCN(Cc2ccccc2)CC1 [5-15, (2R)-N-[2-(1-benzylpiperidin-4-yl)ethyl]-4-[5-cyano-4-(dimethylamino)pyrimidin-2-yl]-2-methylpiperazine-1-carboxamide] | 10 to 100
18 | N#Cc1cnc(N2CCN(C(=O)NCCC3CCN(Cc4ccccc4)CC3)C[C@H]2CO)nc1 [5-25, (3S)-N-[2-(1-benzylpiperidin-4-yl)ethyl]-4-(5-cyanopyrimidin-2-yl)-3-(hydroxymethyl)piperazine-1-carboxamide] | 100 to 1000
19 | C[C@H]1CN(c2ncc(C#N)cn2)CCC1C(=O)NCCC1CCN(Cc2ccccc2)CC1 (stereo partly drawn) [20-1, (3R)-N-[2-(1-benzylpiperidin-4-yl)ethyl]-1-(5-cyanopyrimidin-2-yl)-3-methylpiperidine-4-carboxamide] | 10 to 100
20 | Cc1c(C(=O)NCCC2CCN(Cc3ccccn3)CC2)cnc2cc(-c3cccc(C(F)(F)F)c3)nn12 [19-6] | 100 to 1000
21 | Nc1nc(N2CCN(C(=O)NCCC3CCN(Cc4ccccc4)CC3)CC2)ncc1Cl [5-33, 4-(4-amino-5-chloropyrimidin-2-yl)-N-[2-(1-benzylpiperidin-4-yl)ethyl]piperazine-1-carboxamide] | 10 to 100
22 | Cc1c(C(=O)NCCC2CCN(Cc3ccccc3)CC2)cnc2cc(-c3cccc(F)c3)nn12 [18-6] | 10 to 100
23 | O=C(NCCC1CCN(Cc2cccc3c2OCCO3)CC1)c1ccc(Oc2ccccc2)cc1 [11-18, N-{2-[1-(2,3-dihydro-1,4-benzodioxin-5-ylmethyl)piperidin-4-yl]ethyl}-4-phenoxybenzamide] | 100 to 1000
24 | C[C@@H]1CN(c2cc(F)c(F)cc2F)CCN1C(=O)NCCC1CCN(Cc2ccccc2)CC1 [4-36, (2R)-N-[2-(1-benzylpiperidin-4-yl)ethyl]-2-methyl-4-(2,4,5-trifluorophenyl)piperazine-1-carboxamide] | 10 to 100
25 | C[C@@H]1CN(c2cncnc2)CCN1C(=O)NCCC1CCN(Cc2ccccc2)CC1 [22-19] | 10 to 100

Other lines, results leading:

Row | Ki [nM] | Compound
26 | 10 to 100 | C[C@@H]1CN(c2ncc(C#N)cn2)C[C@H](C)N1C(=O)NCCC1CCN(C2Cc3ccccc3C2)CC1 [21-4, (2R,6S)-4-(5-cyanopyrimidin-2-yl)-N-{2-[l-(2,3-dihydro-1H-inden-2-yl)piperidin-4-yl]ethyl}-2,6-dimethylpiperazine-1-carboxamide]
27 | 100 to 1000 | Cc1nc(CN2CCC(CCNC(=O)C3CCN(c4ccc(OC(F)(F)F)cc4)CC3)CC2)cs1 [11-4, N-(2-{1-[(2-methyl-1,3-thiazol-4-yl)methyl]piperidin-4-yl}ethyl)-1-[4-(trifluoromethoxy)phenyl]piperidine-4-carboxamide]
28 | 100 to 1000 | O=C(NCC(O)C1CCN(CC2CCCCC2)CC1)C1CCN(c2ccc(OC(F)(F)F)cc2)CC1 (stereo not drawn) [11-23, N-{2-[1-(cyclohexylmethyl)piperidin-4-yl]-2-hydroxyethyl}-1-[4-(trifluoromethoxy)phenyl]piperidine-4-carboxamide]
29 | 100 to 1000 | C[C@@H]1CN(c2cc(F)c(F)c(F)c2)CCN1C(=O)NCCC1CCN(Cc2ccccc2OC(F)(F)F)CC1 [6-21, (2R)-2-methyl-N-[2-(1-{[2-(trifluoromethoxy)phenyl]methyl}piperidin-4-yl)ethyl]-4-(3,4,5-trifluorophenyl)piperazine-1-carboxamide]
30 | 10 to 100 | O=C(OCCC1CCN(Cc2ccccc2)CC1)N1CCN(c2ccc(OC(F)(F)F)cc2)CC1 [12-1, 2-(1-benzylpiperidin-4-yl)ethyl 4-[4-(trifluoromethoxy)phenyl]piperazine-1-carboxylate]
31 | 100 to 1000 | C[C@@H]1CN(c2cc(F)c(F)c(F)c2)CCN1C(=O)NCCN(C)[C@@H]1C[C@H](CO)N(Cc2ccccc2)C1 [7-13, (2R)-N-(2-{[(3R,5R)-1-benzyl-5-(hydroxymethyl)pyrrolidin-3-yl](methyl)amino}ethyl)-2-methyl-4-(3,4,5-trifluorophenyl)piperazine-1-carboxamide]
32 | 100 to 1000 | Cc1cc(CN2CCC(CCNC(=O)N3[C@H](C)CN(c4cnc(C(F)(F)F)nc4)C[C@@H]3C)CC2)ccc1O [6-49, (2R,6S)-N-(2-{1-[(4-hydroxy-3-methylphenyl)methyl]piperidin-4-yl}ethyl)-2,6-dimethyl-4-[2-(trifluoromethyl)pyrimidin-5-yl]piperazine-1-carboxamide]
33 | 100 to 1000 | C[C@@H]1CN(c2ccc(F)c(C#N)c2)CCN1C(=O)N(C)C[C@@H](O)C1CCN(Cc2ccccc2)CC1 [3-3, (2R)-N-[(2S)-2-(1-benzylpiperidin-4-yl)-2-hydroxyethyl]-4-(3-cyano-4-fluorophenyl)-N,2-dimethylpiperazine-1-carboxamide]
34 | 100 to 1000 | Cc1nc(C(=O)NCCC2CCN(Cc3ccccc3)CC2)cn1-c1ccc(C#N)cn1 [9-74, N-[2-(1-benzylpiperidin-4-yl)ethyl]-1-(5-cyanopyridin-2-yl)-2-methyl-1H-imidazole-4-carboxamide]
35 | 100 to 1000 | Cc1cc(Cl)c(-c2cc(C(=O)NCCC3CCN(Cc4ccccc4)CC3)ccc2Cl)cn1 [9-67, N-[2-(1-benzylpiperidin-4-yl)ethyl]-4-chloro-3-(4-chloro-6-methylpyridin-3-yl)benzamide]
36 | 10 to 100 | C[C@@H]1CN(c2ccc(OC(F)(F)F)c(C#N)c2)CCN1C(=O)NCCN1CCN(Cc2ccccc2)CC1 [7-3, (2R)-N-[2-(4-benzylpiperazin-1-yl)ethyl]-4-[3-cyano-4-(trifluoromethoxy)phenyl]-2-methylpiperazine-1-carboxamide]
37 | 10 to 100 | CC1(C(=O)NCCC2CCN(Cc3ccccc3)CC2)CCN(c2ccc(OC(F)(F)F)cc2)CC1 [10-31, N-[2-(1-benzylpiperidin-4-yl)ethyl]-4-methyl-1-[4-(trifluoromethoxy)phenyl]piperidine-4-carboxamide]
38 | 100 to 1000 | N#Cc1cc(N2CCC(O)(C(=O)NCCC3CCN(Cc4ccccc4)CC3)CC2)ccc1F [10-51, N-[2-(1-benzylpiperidin-4-yl)ethyl]-1-(3-cyano-4-fluorophenyl)-4-hydroxypiperidine-4-carboxamide]
39 | 100 to 1000 | C[C@@H]1CN(c2cncc(C#N)c2)CCN1C(=O)NCCC1CCN(Cc2ccccc2)CC1 [4-23, (2R)-N-[2-(1-benzylpiperidin-4-yl)ethyl]-4-(5-cyanopyridin-3-yl)-2-methylpiperazine-1-carboxamide]
